*1 amine or outer side, *2 acyl side, *3 side chain or, on linkers, in order; H or OH if unused. Where a SMILES comes first, the peptide text is derived from it. Bridges are numbered along the chain shown (N, C = ends). [ ]: non-standard residue; d: D form. The star is where a group is joined. X120 = CN([C@@H](Cc1cc(Cl)ccc1-c1ccn(S(C)(=O)=O)c1)C(=O)[*:2])[*:1]; NMehhhLys(Me) = CN([C@@H](CCCCCCCN(C)[*:3])C(=O)[*:2])[*:1]; X163 = CN([C@@H](Cc1cc(Cl)ccc1N1CCOCC1)C(=O)[*:2])[*:1]; X176 = CN([C@@H](Cc1cc(F)ccc1-c1cccnc1)C(=O)[*:2])[*:1]; NMe(hhhLys) = CN([C@@H](CCCCCCCN[*:3])C(=O)[*:2])[*:1]; cBuCO(3,3-F2-1-CF3) = O=C(C1(C(F)(F)F)CC(F)(F)C1)*; NMePhe(2,5-Cl2) = CN[C@@H](Cc1cc(Cl)ccc1Cl)C(=O)O; X25 = CCOc1ncc(Cl)cc1C[C@@H](C(=O)[*:2])N(C)[*:1]; Pro(trans-4-F) = O=C(O)[C@@H]1C[C@@H](F)CN1; Pivaloyl(3,3,3-F3) = CC(C)(C(=O)*)C(F)(F)F; Gly(cPr) = N[C@H](C(=O)O)C1CC1
Experiments:
CyclinB1/CDK1 = molecular target: T1, CyclinB1/CDK1 (Homo sapiens, UniProt P14635); test: Fluorescence Polarization (FP) competitive binding assay, Cyclin B1/Cdk1; settings: 10 nM Cyclin B1/Cdk1, 2 nM FAM probe; average of 2-3 independent experiments; read-out: Cyclin B FP IC50;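 further: fluorescence polarization read after equilibration at room temperature, with IC50 taken from serially diluted dose-response curves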
T1 construct: purchased Eurofins, discovery 14-450

CyclinA2/CDK2 = molecular target: T2, CyclinA2/CDK2 (Homo sapiens, UniProt P20248); test: Fluorescence Polarization (FP) competitive binding assay, Cyclin A2/Cdk2; settings: 8 nM Cyclin A2/Cdk2, 2 nM FAM probe; average of 2-3 independent experiments; read-out: Cyclin A FP IC50;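 further: plates equilibrated two hours at room temperature before polarization reading, IC50 fitted from eight-concentration compound titration curves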
T2 construct: purchased CRELUX Protein Services

OVCAR3 cells = test: MTT proliferation assay, OVCAR3; type: cell-based; settings: 5 days compound exposure, 1:3 serial dilution starting at 10 μM;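 further: compound given as an 8- or 10-point series, one day after plating, with exposure covering roughly 3-4 cell doublings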
NCI-H1048 cells = test: MTT proliferation assay, NCI-H1048; type: cell-based; settings: 5 days compound exposure, 1:3 serial dilution starting at 10 μM;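 further: Dose-response in 96-well plates over 8 or 10 concentration points, with exposure spanning 3-4 cell doublings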
CyclinE1/CDK2 = molecular target: T3, CyclinE1/CDK2 (Homo sapiens, UniProt P24864); test: Fluorescence Polarization (FP) competitive binding assay, Cyclin E1/Cdk2; settings: 10 nM Cyclin E1/Cdk2, 2 nM FAM probe; average of 2-3 independent experiments; read-out: Cyclin E FP IC50;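 further: readings taken after two-hour equilibration at room temperature in HEPES buffer with NaCl, DTT, NP-40 and BSA, IC50 fitted from eight-concentration serial dilution series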
T3 construct: purchased Eurofins, discovery 14-475

Work on `CC(C)C[C@@H]1NC(=O)[C@@H](N(C)C(=O)[C@@H](NC(=O)[C@@H]2C[C@@H](F)CN2C(=O)C2(C(F)(F)F)CC(F)(F)C2)C2CC2)CCCCCCCN(C)C(=O)[C@H](Cc2cc(F)ccc2-c2cccnc2)N(C)C1=O` [Example 271] ({cBuCO(3,3-F2-1-CF3)}-[Pro(trans-4-F)][Gly(cPr)][NMehhhLys(Me)]L[X176]; lactam 3-C) yielded an IC50 (CyclinB1/CDK1) of 20 nM, an IC50 (CyclinA2/CDK2) of 30 nM and a GI50 (OVCAR3 cells) of 10 nM. The GI50 (NCI-H1048 cells) was 10 nM and the IC50 (CyclinE1/CDK2) was 240 nM.

For `CC(C)C[C@@H]1NC(=O)[C@@H](N(C)C(=O)[C@@H](NC(=O)[C@@H]2C[C@@H](F)CN2C(=O)C2(C(F)(F)F)CC(F)(F)C2)C2CC2)CC=CCCCCN(C)C(=O)[C@H](Cc2cc(Cl)ccc2-c2cnn(C)c2)N(C)C1=O` [Example 29], the IC50 (CyclinB1/CDK1) was 20 nM, the IC50 (CyclinA2/CDK2) was 30 nM and the GI50 (OVCAR3 cells) was 70 nM. For the same molecule, the GI50 (NCI-H1048 cells) was 40 nM and the IC50 (CyclinE1/CDK2) was 690 nM.

In the case of `CC(C)C[C@@H]1NC(=O)[C@@H](N(C)C(=O)[C@@H](NC(=O)[C@@H]2C[C@@H](F)CN2C(=O)C2(C(F)(F)F)CC(F)(F)C2)C2CC2)CC=CCCCCNC(=O)[C@H](Cc2cc(Cl)ccc2Oc2ncccn2)N(C)C1=O` [Example 152], the IC50 (CyclinB1/CDK1) is reported as 20 nM, the IC50 (CyclinA2/CDK2) is reported as 1020 nM and the GI50 (OVCAR3 cells) is reported as 450 nM. For the same molecule, the GI50 (NCI-H1048 cells) was 500 nM and the IC50 (CyclinE1/CDK2) was 1900 nM.

`CC(C)C[C@@H]1NC(=O)[C@@H](N(C)C(=O)[C@@H](NC(=O)[C@@H]2C[C@@H](F)CN2C(=O)C2(C(F)(F)F)CC(F)(F)C2)C2CC2)CCCCCCCN(C)C(=O)[C@H](Cc2cc(Cl)ccc2N2CCOCC2)N(C)C1=O` [Example 319] ({cBuCO(3,3-F2-1-CF3)}-[Pro(trans-4-F)][Gly(cPr)][NMehhhLys(Me)]L[X163]; lactam 3-C) showed an IC50 (CyclinB1/CDK1) of 20 nM, an IC50 (CyclinA2/CDK2) of 30 nM and a GI50 (OVCAR3 cells) of 20 nM. It also gave a GI50 (NCI-H1048 cells) of 10 nM and an IC50 (CyclinE1/CDK2) of 1350 nM.

`CCOc1ncc(Cl)cc1C[C@H]1C(=O)N(C)CCCCCCC[C@H](N(C)C(=O)[C@@H](NC(=O)[C@@H]2C[C@@H](F)CN2C(=O)C(C)(C)C(F)(F)F)C2CC2)C(=O)N[C@@H](CC(C)C)C(=O)N1C` [Example 269] ({Pivaloyl(3,3,3-F3)}-[Pro(trans-4-F)][Gly(cPr)][NMehhhLys(Me)]L[X25]; lactam 3-C) showed an IC50 (CyclinB1/CDK1) of 20 nM, an IC50 (CyclinA2/CDK2) of 60 nM and a GI50 (OVCAR3 cells) of 30 nM. The GI50 (NCI-H1048 cells) was 30 nM and the IC50 (CyclinE1/CDK2) was 100 nM.

For `CC(C)C[C@@H]1NC(=O)[C@@H](N(C)C(=O)[C@@H](NC(=O)[C@@H]2C[C@@H](F)CN2C(=O)C2(C(F)(F)F)CC(F)(F)C2)C2CC2)CCCCCCCN(C)C(=O)[C@H](Cc2cc(Cl)ccc2-c2ccn(S(C)(=O)=O)c2)N(C)C1=O` [Example 307] ({cBuCO(3,3-F2-1-CF3)}-[Pro(trans-4-F)][Gly(cPr)][NMehhhLys(Me)]L[X120]; lactam 3-C), the IC50 (CyclinB1/CDK1) was 20 nM, the IC50 (CyclinA2/CDK2) was 20 nM and the GI50 (OVCAR3 cells) was 10 nM. For the same molecule, the GI50 (NCI-H1048 cells) was 10 nM and the IC50 (CyclinE1/CDK2) was 440 nM.

Work on `CC(C)C[C@@H]1NC(=O)[C@@H](N(C)C(=O)[C@H](C)NC(=O)[C@@H]2C[C@@H](F)CN2C(=O)C2(C(F)(F)F)CC(F)(F)C2)CCCCCCCNC(=O)[C@H](Cc2cc(Cl)ccc2Cl)N(C)C1=O` [Example 55] ({cBuCO(3,3-F2-1-CF3)}-[Pro(trans-4-F)]A[NMe(hhhLys)]L[NMePhe(2,5-Cl2)]; lactam 3-C) yielded an IC50 (CyclinB1/CDK1) of 80 nM, an IC50 (CyclinA2/CDK2) of 700 nM and a GI50 (OVCAR3 cells) of 710 nM. For the same molecule, the GI50 (NCI-H1048 cells) was 560 nM and the IC50 (CyclinE1/CDK2) was 3930 nM.

Work on `Cc1nnc(-c2ccc(Cl)cc2C[C@H]2C(=O)NCCCCC=CC[C@H](N(C)C(=O)[C@@H](NC(=O)[C@@H]3C[C@@H](F)CN3C(=O)C3(C(F)(F)F)CC(F)(F)C3)C3CC3)C(=O)N[C@@H](CC(C)C)C(=O)N2C)o1` (single isomer, unassigned) [Example 118-P1] yielded an IC50 (CyclinB1/CDK1) of 20 nM, an IC50 (CyclinA2/CDK2) of 110 nM and a GI50 (OVCAR3 cells) of 170 nM. For the same molecule, the GI50 (NCI-H1048 cells) was 180 nM and the IC50 (CyclinE1/CDK2) was 740 nM.

`CC(=O)N1C2CCC1CC(c1ccc(F)cc1C[C@H]1C(=O)N(C)CCCCCCC[C@H](N(C)C(=O)[C@@H](NC(=O)[C@@H]3C[C@@H](F)CN3C(=O)C3(C(F)(F)F)CC(F)(F)C3)C3CC3)C(=O)N[C@@H](CC(C)C)C(=O)N1C)C2` (single isomer, unassigned) [Example 59-P2] gave an IC50 (CyclinB1/CDK1) of 20 nM, an IC50 (CyclinA2/CDK2) of 180 nM and a GI50 (OVCAR3 cells) of 50 nM. The GI50 (NCI-H1048 cells) was 60 nM and the IC50 (CyclinE1/CDK2) was 870 nM.

In the case of `CC(C)C[C@@H]1NC(=O)[C@@H](N(C)C(=O)[C@@H](NC(=O)[C@@H]2C[C@@H](F)CN2C(=O)C2(C(F)(F)F)CCC2)C2CC2)CC=CCCCCNC(=O)[C@H](Cc2cc(Cl)cnc2OC2CC2)N(C)C1=O` (single isomer, unassigned) [Example 107-P2], the IC50 (CyclinB1/CDK1) is reported as 20 nM, the IC50 (CyclinA2/CDK2) is reported as 110 nM and the GI50 (OVCAR3 cells) is reported as 320 nM. It also gave a GI50 (NCI-H1048 cells) of 190 nM and an IC50 (CyclinE1/CDK2) of 180 nM.

— patent US20240408169A1 (priority 2023, published 2024)
